Source: ChEMBL document CHEMBL2440076, “New triarylpyrazoles as broad-spectrum anticancer agents: design, synthesis, and biological evaluation” (Eur J Med Chem, 2013)

Columns and labels:
Format in all cases: functional
[1] = tested on: CCRF-CEM; experiment: Growth inhibition of human CCRF-CEM cells assessed as cell growth at 3X10'-8 M after 48 hrs by sulforhodamine B assay; settings: read-out: Activity
[2] = tested on: OVCAR-4; experiment: Growth inhibition of human OVCAR4 cells assessed as cell growth at 3X10'-5 M after 48 hrs by sulforhodamine B assay; settings: OVCAR-4, 48 h, read-out: Activity
[3] = tested on: SF-295; experiment: Growth inhibition of human SF295 cells assessed as cell growth at 3X10'-7 M after 48 hrs by sulforhodamine B assay; settings: SF-295, 48 h, read-out: Activity
[4] = tested on: HT-29; experiment: Growth inhibition of human HT-29 cells assessed as cell growth at 3X10'-5 M after 48 hrs by sulforhodamine B assay; settings: HT-29, 48 h, read-out: Activity
[5] = tested on: ACHN; experiment: Growth inhibition of human ACHN cells assessed as cell growth at 3X10'-5 M after 48 hrs by sulforhodamine B assay; settings: read-out: Activity
[6] = tested on: NCI-H460; experiment: Growth inhibition of human NCI-H460 cells assessed as cell growth at 3X10'-7 M after 48 hrs by sulforhodamine B assay; settings: NCI-H460, 48 h, read-out: Activity
[7] = tested on: IGROV-1; experiment: Growth inhibition of human IGROV1 cells assessed as cell growth at 3X10'-6 M after 48 hrs by sulforhodamine B assay; settings: IGROV-1, 48 h, read-out: Activity
[8] = tested on: CAKI-1; experiment: Growth inhibition of human CAKI-1 cells assessed as cell growth at 3X10'-5 M after 48 hrs by sulforhodamine B assay; settings: CAKI-1, 48 h, read-out: Activity
[9] = tested on: T47D; experiment: Growth inhibition of human T47D cells assessed as cell growth at 3X10'-5 M after 48 hrs by sulforhodamine B assay; settings: read-out: Activity
[10] = tested on: NCI-H522; experiment: Growth inhibition of human NCI-H522 cells assessed as cell growth at 3X10'-7 M after 48 hrs by sulforhodamine B assay; settings: NCI-H522, 48 h, read-out: Activity
[11] = tested on: RPMI-8226; experiment: Growth inhibition of human RPMI8226 cells assessed as cell growth at 3X10'-9 M after 48 hrs by sulforhodamine B assay; settings: RPMI-8226, 48 h, read-out: Activity
[12] = tested on: SF-539; experiment: Growth inhibition of human SF539 cells assessed as cell growth at 3X10'-5 M after 48 hrs by sulforhodamine B assay; settings: SF-539, 48 h, read-out: Activity
[13] = tested on: SR; experiment: Growth inhibition of human SR cells assessed as cell growth at 3X10'-6 M after 48 hrs by sulforhodamine B assay; settings: read-out: Activity
[14] = tested on: M14; experiment: Growth inhibition of human M14 cells assessed as cell growth at 3X10'-8 M after 48 hrs by sulforhodamine B assay; settings: M14, 48 h, read-out: Activity
[15] = tested on: OVCAR-5; experiment: Growth inhibition of human OVCAR5 cells assessed as cell growth at 3X10'-5 M after 48 hrs by sulforhodamine B assay; settings: OVCAR-5, 48 h, read-out: Activity
[16] = tested on: DU-145; experiment: Growth inhibition of human DU145 cells assessed as cell growth at 3X10'-7 M after 48 hrs by sulforhodamine B assay; settings: DU-145, 48 h, read-out: Activity
[17] = tested on: SF-295; experiment: Growth inhibition of human SF295 cells assessed as cell growth at 3X10'-9 M after 48 hrs by sulforhodamine B assay; settings: SF-295, 48 h, read-out: Activity
[18] = tested on: U-251; experiment: Growth inhibition of human U251 cells assessed as cell growth at 3X10'-6 M after 48 hrs by sulforhodamine B assay; settings: U-251, 48 h, read-out: Activity
[19] = tested on: Malme-3M; experiment: Growth inhibition of human MALME-3M cells assessed as cell growth at 3X10'-5 M after 48 hrs by sulforhodamine B assay; settings: read-out: Activity
[20] = tested on: LOX IMVI; experiment: Growth inhibition of human LOXIMVI cells assessed as cell growth at 3X10'-5 M after 48 hrs by sulforhodamine B assay; settings: read-out: Activity
[21] = tested on: ACHN; experiment: Growth inhibition of human ACHN cells assessed as cell growth at 3X10'-7 M after 48 hrs by sulforhodamine B assay; settings: read-out: Activity
[22] = tested on: IGROV-1; experiment: Growth inhibition of human IGROV1 cells assessed as cell growth at 3X10'-9 M after 48 hrs by sulforhodamine B assay; settings: IGROV-1, 48 h, read-out: Activity
[23] = tested on: BT-549; experiment: Growth inhibition of human BT549 cells assessed as cell growth at 3X10'-5 M after 48 hrs by sulforhodamine B assay; settings: BT-549, 48 h, read-out: Activity
[24] = tested on: OVCAR-3; experiment: Growth inhibition of human OVCAR3 cells assessed as cell growth at 3X10'-5 M after 48 hrs by sulforhodamine B assay; settings: OVCAR-3, 48 h, read-out: Activity
[25] = tested on: A549; experiment: Growth inhibition of human A549/ATCC cells assessed as cell growth at 3X10'-9 M after 48 hrs by sulforhodamine B assay; settings: A549, 48 h, read-out: Activity
[26] = tested on: UACC-257; experiment: Growth inhibition of human UACC257 cells assessed as cell growth at 3X10'-5 M after 48 hrs by sulforhodamine B assay; settings: UACC-257, 48 h, read-out: Activity
[27] = tested on: MOLT-4; experiment: Growth inhibition of human MOLT4 cells assessed as cell growth at 3X10'-9 M after 48 hrs by sulforhodamine B assay; settings: MOLT-4, 48 h, read-out: Activity
[28] = tested on: HOP-62; experiment: Growth inhibition of human HOP62 cells assessed as cell growth at 3X10'-7 M after 48 hrs by sulforhodamine B assay; settings: HOP-62, 48 h, read-out: Activity
[29] = tested on: NCI-H226; experiment: Growth inhibition of human NCI-H226 cells assessed as cell growth at 3X10'-8 M after 48 hrs by sulforhodamine B assay; settings: NCI-H226, 48 h, read-out: Activity
[30] = Growth inhibition of human NCI-ADR-RES cells assessed as cell growth at 3X10'-5 M after 48 hrs by sulforhodamine B assay; settings: read-out: Activity
[31] = tested on: MCF7; experiment: Growth inhibition of human MCF7 cells assessed as cell growth at 3X10'-9 M after 48 hrs by sulforhodamine B assay; settings: MCF7, 48 h, read-out: Activity
[32] = tested on: HOP-62; experiment: Growth inhibition of human HOP62 cells assessed as cell growth at 3X10'-5 M after 48 hrs by sulforhodamine B assay; settings: HOP-62, 48 h, read-out: Activity
[33] = tested on: NCI-H460; experiment: Growth inhibition of human NCI-H460 cells assessed as cell growth at 3X10'-6 M after 48 hrs by sulforhodamine B assay; settings: NCI-H460, 48 h, read-out: Activity
[34] = tested on: T47D; experiment: Growth inhibition of human T47D cells assessed as cell growth at 3X10'-8 M after 48 hrs by sulforhodamine B assay; settings: read-out: Activity
[35] = tested on: NCI-H322M; experiment: Growth inhibition of human NCI-H322M cells assessed as cell growth at 3X10'-8 M after 48 hrs by sulforhodamine B assay; settings: read-out: Activity
[36] = tested on: SNB-19; experiment: Growth inhibition of human SNB19 cells assessed as cell growth at 3X10'-8 M after 48 hrs by sulforhodamine B assay; settings: SNB-19, 48 h, read-out: Activity
[37] = tested on: KM12; experiment: Growth inhibition of human KM12 cells assessed as cell growth at 3X10'-8 M after 48 hrs by sulforhodamine B assay; settings: KM12, 48 h, read-out: Activity

Structure (SMILES)	growth at 0.03 µM [1]	growth at 30 µM [2]	growth at 30 µM [4]	growth at 30 µM [5]	growth at 0.3 µM [6]	growth at 3 µM [7]	growth at 30 µM [8]	growth at 30 µM [9]	growth at 0.3 µM [10]	growth at 0.003 µM [11]	growth at 30 µM [12]	growth at 3 µM [13]	growth at 0.03 µM [14]	growth at 30 µM [15]	growth at 0.3 µM [16]	growth at 3 µM [18]	growth at 30 µM [19]	growth at 30 µM [20]	growth at 0.3 µM [21]	growth at 0.003 µM [22]	also measured
COc1cc(-c2nn(-c3cccc(NC(=O)Nc4ccc(Cl)c(C(F)(F)F)c4)c3)cc2-c2ccncc2)ccc1Cl	95%	-2%	-63%	-4%	101%	5%	-20%	8%	100%	102%	-80%	-13%	109%	-43%	103%	7%	-47%	-72%	97%	110%	growth at 0.3 µM [3]: 93%; growth at 0.003 µM [17]: 92%; growth at 30 µM [23]: -41%; growth at 30 µM [24]: -46%; growth at 0.003 µM [25]: 95%; growth at 30 µM [26]: -53%; growth at 0.003 µM [27]: 104%; growth at 0.3 µM [28]: 93%; growth at 0.03 µM [29]: 92%; growth at 30 µM [30]: -5%; growth at 0.003 µM [31]: 94%; growth at 30 µM [32]: -51%; growth at 3 µM [33]: 6%; growth at 0.03 µM [34]: 101%; growth at 0.03 µM [35]: 93%; growth at 0.03 µM [36]: 93%; growth at 0.03 µM [37]: 101%
O=C(Nc1cccc(-n2cc(-c3ccncc3)c(-c3ccc(Cl)c(O)c3)n2)c1)Nc1ccc(Cl)c(Cl)c1	98%	17%	3%	1%	95%	29%	-9%	-9%	97%	103%	-34%	11%	94%	1%	105%	25%	-15%	-77%	96%	103%	growth at 30 µM [23]: -12%; growth at 30 µM [24]: -37%; growth at 0.003 µM [25]: 96%; growth at 30 µM [26]: -24%; growth at 0.003 µM [27]: 98%; growth at 0.3 µM [28]: 111%; growth at 0.03 µM [29]: 97%; growth at 30 µM [30]: 6%; growth at 0.003 µM [31]: 97%; growth at 30 µM [32]: -13%; growth at 3 µM [33]: 2%; growth at 0.03 µM [34]: 95%; growth at 0.03 µM [35]: 100%; growth at 0.03 µM [36]: 98%; growth at 0.03 µM [37]: 92%
COc1cc(-c2nn(-c3cccc(NC(=O)c4ccc(Cl)c(C(F)(F)F)c4)c3)cc2-c2ccncc2)ccc1Cl	102%	32%	3%	32%	98%	40%	12%	18%	89%	97%	-15%	5%	96%	68%	98%	49%	-6%	16%	90%	94%	growth at 0.3 µM [3]: 90%; growth at 0.003 µM [17]: 92%; growth at 30 µM [23]: 29%; growth at 30 µM [24]: -12%; growth at 0.003 µM [25]: 96%; growth at 30 µM [26]: 32%; growth at 0.003 µM [27]: 100%; growth at 0.3 µM [28]: 94%; growth at 0.03 µM [29]: 92%; growth at 30 µM [30]: -19%; growth at 0.003 µM [31]: 93%; growth at 30 µM [32]: 35%; growth at 3 µM [33]: 51%; growth at 0.03 µM [34]: 96%; growth at 0.03 µM [35]: 90%; growth at 0.03 µM [36]: 96%; growth at 0.03 µM [37]: 96%
